Results on 4 compounds are retold here after patent publication US20130172308A1, “ANTIMICROBIAL AGENTS” (John Grant COLLINS, priority 2011, published 2013).

Read-outs that look alike come from different tables or passages of the source.

Data set [1] has as its system Plasmodium falciparum strain D6. Briefly: [3H]-hypoxanthine growth inhibition assay. The class given is cell-based. As to conditions: for IC50: read-out: IC50 D6; for IC90: read-out: IC90 D6. The protocol:
(§1) The in vitro antimalarial activities of two of the dinuclear ruthenium(II) complexes and chloroquine were assessed by exposing P. falciparum strains to ten serially diluted two-fold concentrations of each compound. Parasite growth was measured by uptake of tritiated [^3H]-hypoxanthine into newly synthesised parasitic DNA.
(§2) The [^3H]-hypoxanthine growth inhibition assay (Desjardins et al., 1979 Antimicrobial Agents Chemother 16: 710-718) was used to evaluate the in vitro antimalarial activity of the compounds. Briefly, synchronised parasite cultures (>90% rings, 6 to 8 h post invasion) in [^3H]-RPMI-LPLF complete medium with 0.5% parasitaemia and 2% haematocrit were exposed to the compounds at ten two-fold concentrations, ranging from 10,000 to 20 nM in 96-well microtitre plates. Chloroquine was used as a reference drug. Uninfected RBCs at 2% haematocrit were used as background controls. For the 96 h exposure period, the plates were incubated in the gas mixture at 37° C. for approximately 48 h, followed by the addition of 0.2 μCi of ^3H-hypoxanthine (GE Healthcare, Amersham) in [^3H]-RPMI-1640-LPLF to each well and a further 48 h of incubation and then frozen at −20° C. Plates were thawed and harvested using Tomtech Harvester 96 Mach III and radioactive counts were obtained using Wallac TriLux 1450 Microbeta Liquid Scintillation Counter (Perkin Elmer, USA). All assays were performed in triplicate for each strain and at least on two separate occasions.
(§3) Tritiated hypoxanthine uptake data were analysed in Graphpad Prism V5.0 software (GraphPad Software Inc. USA). The concentrations of the dinuclear ruthenium(II) complexes and chloroquine were transformed into logarithmic values. After subtracting the background values, the data from drug-treated wells were normalised against drug-free control wells. Non-linear regression analysis was carried out of the compound's concentration versus parasitic hypoxanthine incorporation. The in vitro antimalarial activity of the compound is defined as inhibitory concentrations (IC50) and (IC90) that cause 50% and 90% inhibition of parasite growth as determined by measuring [^3H]-hypoxanthine incorporation.

The subject of data set [2] is Plasmodium falciparum strain W2. As to the kind of experiment: [3H]-hypoxanthine growth inhibition assay. As to conditions: for IC50: read-out: IC50 W2; for IC90: read-out: IC90 W2. The class given is cell-based. The protocol: as §1, §2, §3
For another data set, the system named is S. epidermidis. Briefly: Further MIC assays, whole spectrum bacteria (CAMHB). The format is cell-based. As to conditions: Table 3; Broth: CAMHB. The protocol:
(§4) Further MIC assays were conducted against five different bacteria with Rubbn (n=7, 10, 12, 16), two rigid dinuclear species (bridges bpm and dppm) and Gentamicin—Whole spectrum bacteria MIC test results (Broth: CAMHB).

Another data set deals with S. typhimurium. The data set is described as above. The format is cell-based. As to conditions: Table 3; Broth: CAMHB. The protocol:
as §4

A further data set deals with A. baumanii. Described as above. The class given is cell-based. The arrangement: unit not given here. As to conditions: Table 3; Broth: CAMHB. The protocol: as §4
For a further data set, the system named is human red blood cells. As to the kind of experiment: Haemolytic assay. The format is cell-based. As for the experimental part: Freshly-drawn human blood was collected using lithium heparin vacuum blood collection tubes (Vacutainer, BD Australia). Erythrocytes were separated by centrifugation for 10 min at 1000 g at 10° C. and washed six times with phosphate-buffered saline (PBS) solution and diluted with PBS to a 10% solution. The concentration of erythrocytes was determined by haemocrit centrifugation (Biofuge Haemo, Heraeus instruments). A 1% Triton-X solution was prepared as the positive control. The complexes to be tested were dissolved in PBS to a stock solution of 2048 mg ml^−1 and two-fold diluted in PBS in round-bottomed 96-well plates in a final volume of […] in each well. […] red blood cell suspension samples were added to the wells making a concentration range from […] to 512 μg ml^−1 for Rubbn (n=10, 12, 16) and 2 μg ml^−1 to 1024 μg ml^−1 for Rubb7, and the plates with each complex were respectively incubated for 1, 2, 4, 8 and 24 h at 37° C. After incubation, the plates were centrifuged at 1000 g for 4 min. […] of supernatant in each well was transferred to a corresponding well in a new 96-well microtitre plate. The absorbance of each well was measured at 540 nm using a plate reader (Mutiskan Ascent, Thermo). Each complex was analysed in duplicate. The solutions of the metal complex at the same tested concentrations without erythrocytes were measured as a negative control.
The extent of haemolysis induced by incubation of the ruthenium complexes for 24 h with freshly-collected human red blood cells is shown in FIG. 1 and summarised in Table 5 below: […]

Another data set relates to P. aeruginosa ATCC 27853. Briefly: MIC determination, broth micro-dilution (CAMHB). The format is cell-based, Pseudomonas aeruginosa. The method in brief: (§5)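 Ruthenium complexes two-fold serially diluted in cation-adjusted Mueller Hinton broth, final range 0.25–128 […], with equal volume of bacterial suspension; duplicate determinations, gentamicin as positive control. Plates incubated 37° C for 24 h; MIC by standard micro-dilution.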
In general terms: Dilution methods test growth across graded concentrations, often in twofold steps.

The test system of a further data set is E. coli ATCC 25922. As to the kind of experiment: MIC determination, broth micro-dilution (CAMHB). The class given is cell-based, Escherichia coli. The method in brief:
as §5

The test system of the next data set is THP-1 cells. Briefly: Cytotoxicity assay (cell count with haemacytometer). The class given is cell-based, human. The protocol: Consequently, the toxicity (IC50) against THP-1 cells (a human acute monocytic leukemia cell line and a good model for nucleated eukaryotic cells) was examined (J. […] Human monocytic THP-1 cells were obtained from the American Type Culture Collection (ATCC, Rockville, Md., USA). […] Cells were seeded at a density of 5×10^5 per well in a sterile flat bottom 96-well plate, and incubated with the desired drug concentration in duplicate, to a total volume of […]. The concentration range for all the complexes was between […]. The plates containing each complex were respectively incubated for 24 and 48 h at 37° C. with 5% CO2. After incubation, the concentration of cells in each well was counted with a haemacytometer and IC50 values were calculated and the results are summarise in Table 6 below: […]

A further data set concerns S. aureus ATCC 25923. As to the kind of experiment: MIC determination, broth micro-dilution (CAMHB). The class given is cell-based, Staphylococcus aureus. In outline:
as §5

In a further data set the test system is E. faecalis. As to the kind of experiment: Further MIC assays, whole spectrum bacteria (CAMHB). The format is cell-based. Further details: unit not given beside the values. The note with it: Table 3; Broth: CAMHB. As for the experimental part:
as §4

The subject of data set [3] is MRSA (a wild clinical strain from the JCU culture collection). As to the kind of experiment: MIC determination, broth micro-dilution (CAMHB). The format is cell-based, methicillin-resistant S. aureus. The method in brief: as §5
For a further data set, the system named is VRE. As to the kind of experiment: Further MIC assays, whole spectrum bacteria (CAMHB). As to conditions: Table 3; Broth: CAMHB. The class given is cell-based, vancomycin-resistant Enterococcus. The protocol: as §4
In another data set the test system is E. coli. Briefly: Minimum Bactericidal Concentration (MBC) assay (CAMHB). As to conditions: Table 4, all ΔΔ- enantiomers. The class given is cell-based, Escherichia coli. As for the experimental part:
(§6) Further MIC assays and Minimum Bactericidal Concentration (MBC) assays were conducted against Gram-positive and Gram-negative bacterial strains using symmetric and non-symmetric, inert and labile complexes.

The subject of a further data set is MRSA. The data set is described as above. The format is cell-based, methicillin-resistant S. aureus. As to conditions: Table 4, all ΔΔ- enantiomers. As for the experimental part: as §6
The format of data set [4] is physicochemical. The note with it: pH 7.4. As for the experimental part:
The primary difference between the members of the Rubbn family of complexes is the number of methylene groups in the flexible linking chain. […] Lipophilicity is a significant factor affecting the biological activity of most therapeutic compounds, as it relates to the capacity of the drug to penetrate through the cell membrane. The standard octanol-water partition coefficient (logP) was determined for the Rubbn series (F. Lombardo, B. Faller, M. Shalaeva, I. Tetko and S. Tilton, Methods and Principles in Medicinal Chemistry, 2008, 37, 407) parent model mononuclear species ([Ru(phen)2(Me2bpy)]^2+) and the trinuclear and tetranuclear complexes.
The partition coefficients (logP) were measured using the shake flask technique: each ruthenium complex (at both 0.05 and 0.1 mM) was dissolved in the water phase (0.2 M Na2HPO4—NaH2PO4 buffer, pH=7.4) and an equivalent volume of n-octanol was added.
The two phases were mutually saturated by shaking overnight at ambient temperature and then were allowed to separate on standing. The concentration of the metal complex in each phase was determined spectrophotometrically at l=450 nm.

The test system of a further data set is S. aureus. Briefly: Minimum Bactericidal Concentration (MBC) assay (CAMHB). The class given is cell-based, Staphylococcus aureus. As to conditions: Table 4, all ΔΔ- enantiomers. The protocol: as §6
Another data set deals with P. aeruginosa. The data set is described as above. As to conditions: Table 4, all ΔΔ- enantiomers. The class given is cell-based, Pseudomonas aeruginosa. The protocol:
as §6

Setting [5] is: Plasmodium falciparum, D6, 96 h.
Setting [6] is: Plasmodium falciparum, W2, 96 h.
The mark [7] stands for this setting: mean (SD), 96 h exposure, chloroquine-sensitive strain.
Where [8] appears, read: mean (SD), 96 h exposure, chloroquine-resistant strain.
Where [9] appears, read: Table 4, CAMHB, all ΔΔ- enantiomers.

With `CCN(CC)CCCC(C)Nc1ccnc2cc(Cl)ccc12` (stereo not drawn) [chloroquine, reference compound], in data set [1] (setting [5]), the IC50 was found to be 9.8 nM and the 90% effect concentration (IC90) was 12.5 nM. Moreover, in [2] (setting [6]), the half-inhibitory concentration (IC50) was found to be 176 nM and the IC90 was 383 nM.
For the compound `Cc1cc[n+]2c(c1)-c1cc(CCCCCCCc3cc[n+]4c(c3)-c3cc(C)cc[n+]3[Ru-4]435([n+]4cccc6ccc7ccc[n+]3c7c64)[n+]3cccc4ccc6ccc[n+]5c6c43)cc[n+]1[Ru-4]213([n+]2cccc4ccc5ccc[n+]1c5c42)[n+]1cccc2ccc4ccc[n+]3c4c21.F[P-](F)(F)(F)(F)F.F[P-](F)(F)(F)(F)F.F[P-](F)(F)(F)(F)F.F[P-](F)(F)(F)(F)F` [ΔΔ-Rubb7, [{Ru(phen)2}2(μ-bb7)](PF6)4], in the data set with S. epidermidis, the “MIC S. epidermidis” value is given as 1. In the data set with S. typhimurium, the “MIC S. typhimurium” value is >128. In addition, the “MIC A. baumanii” value against A. baumanii is recorded as 64. In addition, the “First indication (>2%) of haemolysis” value in the data set on human red blood cells (24 h incubation with red blood cells) was found to be 64 µg/mL. The haemolytic activity entry in the data set with human red blood cells (all the tested concentrations, over 24 h) is on record as “no significant haemolytic activity”. Further, the “MIC P. aeruginosa” value with P. aeruginosa ATCC 27853 (Table 1, 37° C., 24 h) came to 128 µg/mL. Besides, the “MIC E. coli” value in the data set on E. coli ATCC 25922 (Table 1, 37° C., 24 h) amounted to 16 µg/mL. In the data set with THP-1 cells (24 h), 266000 nM corresponded to half-maximal inhibition (IC50) and the “IC50 THP-1” value amounted to 400 µg/mL. In addition, in the data set on THP-1 cells (48 h), the IC50 turned out to be 173000 nM and the “IC50 THP-1” value worked out at 260 µg/mL. In addition, the “MIC S. aureus” value against S. aureus ATCC 25923 (Table 1, 37° C., 24 h) worked out at 16 µg/mL. The “MIC E. faecalis” value against E. faecalis is 32. Moreover, the “MIC MRSA” value in [3] (Table 1, 37° C., 24 h) is 32 µg/mL. Besides, the “MIC VRE” value with VRE stood at 16.
`Cc1ccnc(-c2cc(CCCCCCCCCCCCCCCCc3ccnc(-c4cc(C)ccn4)c3)ccn2)c1.[Cl-].[Cl-].[Cl-].[Cl-].[Ru+2].[Ru+2].c1cnc2c(c1)ccc1cccnc12.c1cnc2c(c1)ccc1cccnc12.c1cnc2c(c1)ccc1cccnc12.c1cnc2c(c1)ccc1cccnc12` [Rubb16, [{Ru(phen)2}2(μ-bb16)]Cl4] displayed an MBC E. coli against E. coli of 2 µg/mL. For the same compound, in the data set with MRSA, the MBC MRSA came out at 2 µg/mL. In addition, in data set [1] (setting [7]), the IC50 came out at 226 nM and the IC90 came to 413 nM. Moreover, in [2] (setting [8]), the IC50 was 289 nM and the IC90 was found to be 444 nM. The “MIC P. aeruginosa” value with P. aeruginosa ATCC 27853 (setting [9]) worked out at 8. Moreover, the “MIC E. coli” value in the data set with E. coli ATCC 25922 (setting [9]) is recorded as 2. For the same compound, the log partition coefficient (logP) in data set [4] was −1.9. In addition, the “MIC S. aureus” value against S. aureus ATCC 25923 (setting [9]) is 1. Moreover, in data set [3] (setting [9]), the “MIC MRSA” value was 1. The MBC S. aureus against S. aureus came out at 1 µg/mL. This compound yielded an MBC P. aeruginosa with P. aeruginosa of 8 µg/mL.
In the case of [{Ru(phen)2}2(μ-bb12)] [Rubb12], the MBC E. coli in the data set on E. coli was 2 µg/mL. The MBC MRSA in the data set with MRSA was 2 µg/mL. In addition, in [1] (setting [7]), the IC50 was 733 nM and the IC90 was found to be 1250 nM. In data set [2] (setting [8]), the IC50 was 739 nM and the concentration for an effect of 90% (IC90) was 1400 nM. Further, the “MIC P. aeruginosa” value in the data set with P. aeruginosa ATCC 27853 (setting [9]) worked out at 16. Further, the “MIC E. coli” value with E. coli ATCC 25922 (setting [9]) amounted to 2. Moreover, the logP in [4] is given as −2.7. Moreover, the “MIC S. aureus” value against S. aureus ATCC 25923 (setting [9]) amounted to 1. For the same compound, in data set [3] (setting [9]), the “MIC MRSA” value was determined as 1. In the data set on S. aureus, this compound displayed an MBC S. aureus of 2 µg/mL. In addition, the MBC P. aeruginosa against P. aeruginosa worked out at 32 µg/mL.

For orientation: IC50 means the concentration at which inhibition is half-maximal. In general, IC90 refers to the concentration needed for an effect of 90%. The logP is the decadic logarithm of the partition coefficient of the neutral form, usually between octanol and water.
